Experimental data from patent US20120029187A1, “HALOALKYLSULFONANILIDE DERIVATIVE” (Nissan Chemical Industries, Ltd., priority 2009, published 2012).

Key:
Assay type in all cases: in vivo
barnyardgrass [1] = test: Test Example 2: herbicidal effects during the vegetation period under submerged conditions; details: treatment during the vegetation period under submerged conditions; dose 2.52 g/a
Protocol: (§1) Test on the Herbicidal Effects on Weeds During the Vegetation Period Under Submerged Conditions
(§2) Alluvial soil was put in 1/30000-are styrol cups and admixed with water so that it was submerged at a depth of 4 cm. In each cup, seeds of barnyardgrass, bulrush and ducksalad were sown together, and the cups were placed in a greenhouse at 25 to 30° C. to grow the plants. When the barnyardgrass, bulrush and ducksalad reached the 1- or 2-leaf stage, emulsifiable concentrates containing compounds of the present invention formulated in accordance with Formulation Example 2 were applied to the water surfaces at predetermined doses after diluted with water. Three weeks after the application, the herbicidal effects against various plants were determined on the same evaluation scale as in Test Example 1.
(§3) A: barnyardgrass, B: bulrush, C: ducksalad, D: large crabgrass, E: giant foxtail, F: wild oat, G: water foxtail, H: Italian ryegrass, I: velvetleaf, J: common ragweed, K: redroot pigweed, L: common lambsquater, M: posumbu knotweed, N: common chickweed, O: beadstraw, a: transplanted rice, b: corn, c: soybean, d: direct-seeded rice, e: wheat, f: sugar beet.
(§4) The doses (g/a) represents the amounts in g per 1 are (a) applied after adjustment of concentration adjustment.

bulrush [2] = test: as above; details: treatment during the vegetation period under submerged conditions; dose 2.52 g/a
Protocol: as §1, §2, §3, §4

ducksalad [3] = test: as above; details: treatment during the vegetation period under submerged conditions; dose 2.52 g/a
Protocol: as §1, §2, §3, §4

barnyardgrass [4] = test: Test Example 4: herbicidal effect in foliage treatment; details: dose 3.2 g/a, three weeks after the application
Source text: (§5) Test on the Herbicidal Effect in Foliage Treatment
(§6) Sterilized diluvial soil was put in plastic boxes with a length of 21 cm, a width of 13 cm and a depth of 7 cm, and seeds of barnyardgrass, large crabgrass, giant foxtail, wild oat, blackgrass, velvetleaf, common ragweed, redroot pigweed, common lambsquater, posumbu knotweed, common chickweed, corn, soybean, rice, wheat and sugar beet were sown in spots and covered with an about 1.5 cm-thick soil layer. The boxes were placed in a greenhouse at 25 to 30° C. to grow the plants. After 14 days, emulsifiable concentrates containing compounds of the present invention formulated in accordance with Formulation Example 2 were uniformly applied to the foliage at predetermined doses through a small sprayer after diluted with water. Three weeks after the application, the herbicidal effects against various plants were determined on the same evaluation scale as in Test Example 1.
as §3, §4

beadstraw = test: as above; details: dose 3.2 g/a, three weeks after the application
Source text: as §5, §6, §3, §4

Italian ryegrass [5] = test: as above; details: dose 3.2 g/a, three weeks after the application
Source text: as §5, §6, §3, §4

giant foxtail [6] = test: as above; details: dose 3.2 g/a, three weeks after the application
Source text: as §5, §6, §3, §4

redroot pigweed [7] = test: as above; details: dose 3.2 g/a, three weeks after the application
Source text: as §5, §6, §3, §4

common chickweed [8] = test: as above; details: dose 3.2 g/a, three weeks after the application
Source text: as §5, §6, §3, §4

common ragweed [9] = test: as above; details: dose 3.2 g/a, three weeks after the application
Source text: as §5, §6, §3, §4

posumbu knotweed [10] = test: as above; details: dose 3.2 g/a, three weeks after the application
Source text: as §5, §6, §3, §4

large crabgrass [11] = test: as above; details: dose 3.2 g/a, three weeks after the application
Source text: as §5, §6, §3, §4

common lambsquater [12] = test: as above; details: dose 3.2 g/a, three weeks after the application
Source text: as §5, §6, §3, §4

velvetleaf = test: as above; details: dose 3.2 g/a, three weeks after the application
Source text: as §5, §6, §3, §4

water foxtail [13] = test: as above; details: dose 3.2 g/a, three weeks after the application
Source text: as §5, §6, §3, §4

barnyardgrass [14] = test: Test Example 3: herbicidal effects in soil treatment; details: dose 3.2 g/a
Source text: (§7) Test on the Herbicidal Effects in Soil Treatment
as §6, with “chickweed” for “chickweed,”, “Emulsifiable” for “The boxes were placed in a greenhouse at 25 to 30° C. to grow the plants. After 14 days, emulsifiable”, “soil surfaces” for “foliage”, “dilute” for “diluted”
as §3, §4

Italian ryegrass [15] = test: as above; details: dose 3.2 g/a
Source text: as §7
as §6, with “chickweed” for “chickweed,”, “Emulsifiable” for “The boxes were placed in a greenhouse at 25 to 30° C. to grow the plants. After 14 days, emulsifiable”, “soil surfaces” for “foliage”, “dilute” for “diluted”
as §3, §4

giant foxtail [16] = test: as above; details: dose 3.2 g/a
Source text: as §7
as §6, with “chickweed” for “chickweed,”, “Emulsifiable” for “The boxes were placed in a greenhouse at 25 to 30° C. to grow the plants. After 14 days, emulsifiable”, “soil surfaces” for “foliage”, “dilute” for “diluted”
as §3, §4

redroot pigweed [17] = test: as above; details: dose 3.2 g/a
Source text: as §7
as §6, with “chickweed” for “chickweed,”, “Emulsifiable” for “The boxes were placed in a greenhouse at 25 to 30° C. to grow the plants. After 14 days, emulsifiable”, “soil surfaces” for “foliage”, “dilute” for “diluted”
as §3, §4

common chickweed [18] = test: as above; details: dose 3.2 g/a
Source text: as §7
as §6, with “chickweed” for “chickweed,”, “Emulsifiable” for “The boxes were placed in a greenhouse at 25 to 30° C. to grow the plants. After 14 days, emulsifiable”, “soil surfaces” for “foliage”, “dilute” for “diluted”
as §3, §4

common ragweed [19] = test: as above; details: dose 3.2 g/a
Source text: as §7
as §6, with “chickweed” for “chickweed,”, “Emulsifiable” for “The boxes were placed in a greenhouse at 25 to 30° C. to grow the plants. After 14 days, emulsifiable”, “soil surfaces” for “foliage”, “dilute” for “diluted”
as §3, §4

posumbu knotweed [20] = test: as above; details: dose 3.2 g/a
Source text: as §7
as §6, with “chickweed” for “chickweed,”, “Emulsifiable” for “The boxes were placed in a greenhouse at 25 to 30° C. to grow the plants. After 14 days, emulsifiable”, “soil surfaces” for “foliage”, “dilute” for “diluted”
as §3, §4

large crabgrass [21] = test: as above; details: dose 3.2 g/a
Source text: as §7
as §6, with “chickweed” for “chickweed,”, “Emulsifiable” for “The boxes were placed in a greenhouse at 25 to 30° C. to grow the plants. After 14 days, emulsifiable”, “soil surfaces” for “foliage”, “dilute” for “diluted”
as §3, §4

common lambsquater [22] = test: as above; details: dose 3.2 g/a
Source text: as §7
as §6, with “chickweed” for “chickweed,”, “Emulsifiable” for “The boxes were placed in a greenhouse at 25 to 30° C. to grow the plants. After 14 days, emulsifiable”, “soil surfaces” for “foliage”, “dilute” for “diluted”
as §3, §4

water foxtail [23] = test: as above; details: dose 3.2 g/a
Source text: as §7
as §6, with “chickweed” for “chickweed,”, “Emulsifiable” for “The boxes were placed in a greenhouse at 25 to 30° C. to grow the plants. After 14 days, emulsifiable”, “soil surfaces” for “foliage”, “dilute” for “diluted”
as §3, §4

transplanted rice = test: Test Example 1: preemergence treatment under submerged conditions, effect on crop; details: dose 2.52 g/a
Source text: (§8) Test on the Herbicidal Effects in Preemergence Treatment on Weeds Under Submerged Conditions
(§9) Alluvial soil was put in 1/30000-are styrol cups and admixed with water so that it was submerged at a depth of 4 cm. In each cup, seeds of barnyardgrass, bulrush and ducksalad were sown together, and rice seedlings at the 2.5-leaf stage were transplanted. On the same day as the seeding, emulsifiable concentrates containing compounds of the present invention formulated in accordance with Formulation Example 2 were applied to the water surfaces at predetermined doses after diluted with water. The cups were placed in a greenhouse at 25 to 30° C. to grow the plants. Three weeks after the application, the herbicidal effects against various plants were determined on the following evaluation scale.
(§10) 5 mortality of 90% or above (nearly complete death)
(§11) 4 mortality of at least 70% and less than 90%
(§12) 3 mortality of at least 40% and less than 70%
(§13) 2 mortality of at least 20% and less than 40%
(§14) 1 mortality of at least 5% and less than 20%
(§15) 0 mortality of less than 5% (almost ineffective)
as §3, §4

barnyardgrass [24] = test: Test Example 1: herbicidal effects in preemergence treatment under submerged conditions; details: dose 2.52 g/a
Source text: as §8, §9, §10, §11, §12, §13, §14, §15, §3, §4

bulrush [25] = test: as above; details: dose 2.52 g/a
Source text: as §8, §9, §10, §11, §12, §13, §14, §15, §3, §4

ducksalad [26] = test: as above; details: dose 2.52 g/a
Source text: as §8, §9, §10, §11, §12, §13, §14, §15, §3, §4

Row | Compound | A: barnyardgrass, herbicidal effect (evaluation scale 0-5) (barnyardgrass [1]) | B: bulrush, herbicidal effect (evaluation scale 0-5) (bulrush [2]) | C: ducksalad, herbicidal effect (evaluation scale 0-5) (ducksalad [3]) | A: barnyardgrass, herbicidal effect (barnyardgrass [4]) | O: beadstraw, herbicidal effect (beadstraw) | H: Italian ryegrass, herbicidal effect (Italian ryegrass [5]) | E: giant foxtail, herbicidal effect (giant foxtail [6]) | K: redroot pigweed, herbicidal effect (redroot pigweed [7]) | N: common chickweed, herbicidal effect (common chickweed [8]) | J: common ragweed, herbicidal effect (common ragweed [9]) | M: posumbu knotweed, herbicidal effect (posumbu knotweed [10]) | D: large crabgrass, herbicidal effect (large crabgrass [11]) | L: common lambsquater, herbicidal effect (common lambsquater [12]) | I: velvetleaf, herbicidal effect (velvetleaf) | G: water foxtail, herbicidal effect (water foxtail [13]) | herbicidal effect, A: barnyardgrass (barnyardgrass [14]) | herbicidal effect, H: Italian ryegrass (Italian ryegrass [15]) | herbicidal effect, E: giant foxtail (giant foxtail [16]) | herbicidal effect, K: redroot pigweed (redroot pigweed [17]) | herbicidal effect, N: common chickweed (common chickweed [18]) | other results
1 | CCOC(=O)N(c1ccccc1CN1OCC(C(F)(F)F)OC1=O)S(=O)(=O)C(F)(F)F (stereo not shown) [III-9] | 4 (mortality of at least 70% and less than 90%) | 5 (mortality of 90% or above (nearly complete death)) | 4 (mortality of at least 70% and less than 90%) | 0 (mortality of less than 5% (almost ineffective)) | 3 (mortality of at least 40% and less than 70%) | 0 (mortality of less than 5% (almost ineffective)) | 0 (mortality of less than 5% (almost ineffective)) | 0 (mortality of less than 5% (almost ineffective)) | 3 (mortality of at least 40% and less than 70%) | 0 (mortality of less than 5% (almost ineffective)) | 2 (mortality of at least 20% and less than 40%) | 0 (mortality of less than 5% (almost ineffective)) | 2 (mortality of at least 20% and less than 40%) | 3 (mortality of at least 40% and less than 70%) | 5 (mortality of 90% or above (nearly complete death)) | 2 (mortality of at least 20% and less than 40%) | 0 (mortality of less than 5% (almost ineffective)) | 2 (mortality of at least 20% and less than 40%) | 0 (mortality of less than 5% (almost ineffective)) | 1 (mortality of at least 5% and less than 20%) | herbicidal effect, J: common ragweed (common ragweed [19]): 0 (mortality of less than 5% (almost ineffective)); herbicidal effect, M: posumbu knotweed (posumbu knotweed [20]): 1 (mortality of at least 5% and less than 20%); herbicidal effect, D: large crabgrass (large crabgrass [21]): 0 (mortality of less than 5% (almost ineffective)); herbicidal effect, L: common lambsquater (common lambsquater [22]): 3 (mortality of at least 40% and less than 70%); herbicidal effect, G: water foxtail (water foxtail [23]): 5 (mortality of 90% or above (nearly complete death)); a: transplanted rice, effect on crop (evaluation scale 0-5) (transplanted rice): 0 (mortality of less than 5% (almost ineffective)); A: barnyardgrass, herbicidal effect (evaluation scale 0-5) (barnyardgrass [24]): 4 (mortality of at least 70% and less than 90%); B: bulrush, herbicidal effect (evaluation scale 0-5) (bulrush [25]): 5 (mortality of 90% or above (nearly complete death)); C: ducksalad, herbicidal effect (evaluation scale 0-5) (ducksalad [26]): 0 (mortality of less than 5% (almost ineffective))
2 | CC1(C)CON(Cc2ccccc2NS(=O)(=O)C(F)(F)F)C(=O)O1 [III-10] | 5 (mortality of 90% or above (nearly complete death)) | 5 (mortality of 90% or above (nearly complete death)) | 5 (mortality of 90% or above (nearly complete death)) | 5 (mortality of 90% or above (nearly complete death)) | 5 (mortality of 90% or above (nearly complete death)) | 4 (mortality of at least 70% and less than 90%) | 1 (mortality of at least 5% and less than 20%) | 4 (mortality of at least 70% and less than 90%) | 1 (mortality of at least 5% and less than 20%) | 5 (mortality of 90% or above (nearly complete death)) | 5 (mortality of 90% or above (nearly complete death)) | 4 (mortality of at least 70% and less than 90%) | 4 (mortality of at least 70% and less than 90%) | 3 (mortality of at least 40% and less than 70%) | 5 (mortality of 90% or above (nearly complete death)) | 5 (mortality of 90% or above (nearly complete death)) | 4 (mortality of at least 70% and less than 90%) | 4 (mortality of at least 70% and less than 90%) | 2 (mortality of at least 20% and less than 40%) | 4 (mortality of at least 70% and less than 90%) | herbicidal effect, J: common ragweed (common ragweed [19]): 5 (mortality of 90% or above (nearly complete death)); herbicidal effect, M: posumbu knotweed (posumbu knotweed [20]): 5 (mortality of 90% or above (nearly complete death)); herbicidal effect, D: large crabgrass (large crabgrass [21]): 5 (mortality of 90% or above (nearly complete death)); herbicidal effect, L: common lambsquater (common lambsquater [22]): 4 (mortality of at least 70% and less than 90%); herbicidal effect, G: water foxtail (water foxtail [23]): 5 (mortality of 90% or above (nearly complete death)); a: transplanted rice, effect on crop (evaluation scale 0-5) (transplanted rice): 0 (mortality of less than 5% (almost ineffective)); A: barnyardgrass, herbicidal effect (evaluation scale 0-5) (barnyardgrass [24]): 5 (mortality of 90% or above (nearly complete death)); B: bulrush, herbicidal effect (evaluation scale 0-5) (bulrush [25]): 5 (mortality of 90% or above (nearly complete death)); C: ducksalad, herbicidal effect (evaluation scale 0-5) (ducksalad [26]): 5 (mortality of 90% or above (nearly complete death))
